For this assay, the system named is methicillin-Sensitive Staphylococcus aureus (MSSA). Briefly: Planktonic (free-living) antibacterial assay, broth microdilution MIC vs. MSSA. The class given is cell-based. The conditions noted are these: minimal concentration at which bacterial growth is completely inhibited, 37° C., 24 to 48 hours, OD 600 nm. The procedure:
Test C. Planktonic (Free-Living) Antibacterial Assay.
Planktonic antibacterial activity can be determined using a broth microdilution assay in which log-phase bacteria are grown at 37° C. in appropriate medium containing two-fold serial dilutions of a compound to yield a final concentration ranging from […]. For determination of minimal inhibitory concentration (MIC) values, bacterial growth is monitored after 24 to 48 hours by measuring optical density at 600 nm.
The minimal inhibitory concentration against methicillin-Sensitive Staphylococcus aureus (MSSA) for each of the following representative compounds of the invention was determined to be less than 32 μg/ml.
For orientation: In broth dilution the organism is exposed to a series of concentrations in liquid medium.

One may read the MIC as the least concentration at which growth counts as inhibited. Regarding `C[n+]1cc2ccccc2cc1-c1cc(-c2ccccc2)cc(-c2ccccc2)c1.[I-]` [Example 6], the MIC is no more than 32 µg/mL.

Take `COc1cc2c[n+]3ccc4c(OC)c(OC)ccc4c3cc2c(-c2ccc(-c3ccccc3)cc2)c1OC.[Cl-]` [Example 21]: the MIC was no more than 32 µg/mL. Regarding `COc1cc2cc3c4cc(-c5ccc(-c6ccccc6)cc5)c(OC)c(OC)c4cc[n+]3c(C)c2cc1OC` [Example 17], the MIC is no more than 32 µg/mL.

Compound `COc1cc2cc3c4cc(-c5ccc(C)cc5)c(OC)cc4cc[n+]3cc2cc1OC.[Cl-]` [Example 31] came in with a minimal inhibitory concentration (MIC) of no more than 32 µg/mL. Then `COc1cc2cc3c4cc(-c5ccccc5)c(OC)cc4cc[n+]3cc2cc1OC.[Cl-]` [Example 35], with no more than 32 µg/mL. Then `COc1cc2cc3c4cc(-c5ccc(C)cc5)c(OC)cc4cc[n+]3c(C)c2cc1OC` [Example 30], with no more than 32 µg/mL; and `C[n+]1cc2ccccc2cc1-c1cccc(-c2ccccc2)c1.[I-]` [Example 2], with no more than 32 µg/mL. Then `COc1cc2cc(-c3cccc(-c4ccc(-c5ccccc5)cc4)c3)[n+](C)c(C)c2cc1OC.[I-]` [Example 16], with no more than 32 µg/mL. `COc1cc2cc(-c3cccc(-c4ccccc4)c3)[n+](C)c(C)c2cc1OC.[I-]` [Example 4]: the MIC is no more than 32 µg/mL.

`COc1cc2c(C)[n+]3ccc4c(OC)c(OC)ccc4c3cc2c(-c2ccc(-c3ccccc3)cc2)c1OC` [Example 20] had an MIC of no more than 32 µg/mL.

With `COc1cc2cc(-c3cc(-c4ccccc4)cc(-c4ccccc4)c3)[n+](C)c(C)c2cc1OC.[I-]` [Example 8], the MIC was no more than 32 µg/mL. The result for `COc1cc2cc[n+]3cc4c(OC)c(OC)c(OC)cc4cc3c2cc1-c1ccc(-c2ccccc2)cc1.[Cl-]` [Example 19] reads no more than 32 µg/mL; that for `COc1cc2cc3c4cc(-c5cccc(N(C)C)c5)c(OC)cc4cc[n+]3c(C)c2cc1OC` [Example 27], no more than 32 µg/mL.

(Values after patent US9227966B2, “Antimicrobial agents” (Rutgers, The State University of New Jersey, priority 2010, dated 2016).)
